The target of assay [1] is T1, α1A-AR (Homo sapiens, UniProt P35348).
T1 sequence (P35348 1-466): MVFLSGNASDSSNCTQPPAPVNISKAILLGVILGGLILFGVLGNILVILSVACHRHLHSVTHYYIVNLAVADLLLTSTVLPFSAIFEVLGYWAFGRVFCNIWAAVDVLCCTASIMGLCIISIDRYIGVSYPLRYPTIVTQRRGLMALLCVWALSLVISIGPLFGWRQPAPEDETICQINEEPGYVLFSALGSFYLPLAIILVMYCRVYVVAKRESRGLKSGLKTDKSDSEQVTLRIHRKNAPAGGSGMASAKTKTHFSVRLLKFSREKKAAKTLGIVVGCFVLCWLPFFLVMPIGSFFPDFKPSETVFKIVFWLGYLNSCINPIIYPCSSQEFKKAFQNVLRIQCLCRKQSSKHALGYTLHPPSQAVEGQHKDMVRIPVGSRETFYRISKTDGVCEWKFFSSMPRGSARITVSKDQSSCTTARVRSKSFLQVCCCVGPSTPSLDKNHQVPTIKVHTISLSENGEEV
The assay is described as follows: Ca2+ transient response (FLIPR, fluo3) in α1A-AR transduced HEK-293/EBNA cells. The class given is cell-based. More on the design: expressed in transfected cells; host or cells: HEK-293/EBNA (baculovirus transduction, NaBu induction). As for the experimental part: Prior to experiments, cells were transduced with baculovirus strains designed for transient expression of α1A-AR or aldehyde oxidase (negative control). This was performed by incubating cells with virus (MOI 100–150) for 3 to 4 h, followed by exchange into fresh serum free growth medium supplemented with 4 mM sodium butyrate (NaBu). Cells were grown for another 14 to 18 h and then examined for agonist-evoked responses in transient Ca^2+ release, IP accumulation or pERK activation assays. The surface receptor expression density was determined by flow cytometry via immunofluorescence labeling of an N-terminal HA epitope tag on the receptor and radioligand binding in partially purified membranes.
Cells were resuspended in Hank’s balanced salt solution (Invitrogen) supplemented with 2 mM CaCl2, 10 mM HEPES pH 7.4, 2.5 mM probenecid, plus 1g/L each of glucose and bovine serum albumin (BSA), and seeded in poly-D-lysine coated 96-well black plates with transparent bottom (Costar) at a density of 50,000 cells/0.1 mL per well. Cells were then incubated for 1 h at 37°C with an additional 0.1 mL of buffer containing 4 μM fluo3-AM that was diluted from a stock solution containing 1 mM fluo3-AM dye in DMSO with 10% pluronic acid. After dye loading incubation, plates were washed twice with 100 μL of buffer and refilled with 100 μL of assay buffer. In experiments testing the effect of antagonists, 25 μL of buffer from wells of washed cells were replaced with 25 μL of vehicle or 4× antagonist solution. Pre-incubation of ligand with dye-loaded cells proceeded for 5–30 minutes immediately prior to measurements of agonist-evoked responses. Agonist-evoked Ca^2+ mobilization responses of cell populations were monitored at room temperature simultaneously in all wells of the assay plate using the plate-imaging fluorometric reader FLIPR (MDS Analytical Technologies, Sunnyvale, CA). […] The amplitudes of Ca^2+ transient responses are reported as ΔF/F0, or fold-change in Ca^2+ dye fluorescence relative to the baseline signal ΔF/F0 = (F-F0)/F0 +1 (where ΔF is maximal fluorescence intensity observed following agonist application, F0 = baseline fluorescence, or average intensity measured over the 10 s interval prior to agonist application). Image acquisition rates were varied from 1 Hz during the first 100 s of measurements to 0.5 Hz for the remaining time of the recording.
Graphs shown reflect either pooled or representative data (see figure legends). For concentration-response analysis, results from Ca^2+ mobilization experiments were plotted as ΔF/F0 vs. agonist concentration and fit to a sigmoidal concentration-response equation using the GraphPad Prism software package. In cases where biphasic concentration-response curves were observed data were fit to a two-site concentration-response model: F(X)=R0+(Rmax−R0)[Fr1/(1+10^X-logEC50,1)+(1−Fr1)/(1+10^X-logEC50,2)] (1) , where X is the logarithm of the agonist concentration, R0 and Rmax are respectively the response minimum and maximum; Fr1 is the response fraction attributable to receptor characterized by half effective concentration of the first response phase (EC50,1), with the reminder response attributable to the second half effective concentration (EC50,2). For radioligand binding experiments, B max values were calculated from maximum binding using the equation B max = (SB × ([…] + [L])/[L]), where SB is the specific binding expressed as fmol per mg of membrane protein, and [L] is the ligand concentration.

The test system of assay [2] is CCR5_CHO cells. The assay is described as follows: Ca2+ transient response in CCR5_CHO negative control cells. Type of assay: cell-based, Chinese hamster. Particulars: S4 Fig. As for the experimental part: Cells were resuspended in Hank’s balanced salt solution (Invitrogen) supplemented with 2 mM CaCl2, 10 mM HEPES pH 7.4, 2.5 mM probenecid, plus 1g/L each of glucose and bovine serum albumin (BSA), and seeded in poly-D-lysine coated 96-well black plates with transparent bottom (Costar) at a density of 50,000 cells/0.1 mL per well. Cells were then incubated for 1 h at 37°C with an additional 0.1 mL of buffer containing 4 μM fluo3-AM that was diluted from a stock solution containing 1 mM fluo3-AM dye in DMSO with 10% pluronic acid. After dye loading incubation, plates were washed twice with 100 μL of buffer and refilled with 100 μL of assay buffer. In experiments testing the effect of antagonists, 25 μL of buffer from wells of washed cells were replaced with 25 μL of vehicle or 4× antagonist solution. […] Agonist-evoked Ca^2+ mobilization responses of cell populations were monitored at room temperature simultaneously in all wells of the assay plate using the plate-imaging fluorometric reader FLIPR (MDS Analytical Technologies, Sunnyvale, CA). Measurements consisted of recording baseline fluorescence signal for 10 seconds followed by addition of the test substance and 1–2 minute readings of Ca^2+ transient responses as reported by changes in Ca^2+ dye fluorescence (excitation 488 nm, emission 510–570 nm). […]

`CC(C)NCC(O)c1ccc(O)c(O)c1` (stereo not drawn) [Iso, isoproterenol]: in assay [1], the “maximal response amplitude ΔF/F0 in presence of ICI 118,551” value turned out to be 1.3. Besides, the “magnitude ΔF/F0 in presence of RS100329” value in assay [1] (10 nM RS100329 pretreatment) was 1.2. Besides, the “ΔF/F0, β2-AR-dependent phase” value in assay [1] (pertussis toxin 100 ng/mL, 18 h) is listed as 1.5; in assay [1] (vehicle (no PTX), Fig. 4B), 1.3. Besides, in assay [1] (α1A-AR transduced cells), the “diminution of low potency phase of response in absence of extracellular Ca2+” value is reported as “approximately 50%”. In addition, in assay [2], the “Ca2+ transient response” value is listed as “not observed”.
